US20080176889A1, “9-anilinoacridine alkylating agents” (priority 2004, published 2008)
Where a name gives a salt, the structure may show the parent alone. Read-outs that look alike come from different tables or passages of the source.

Key:
[1] = system: human lymphoblastic leukemic cells (CCRF-CEM); assay: XTT-tetrazolium cytotoxicity assay, CCRF-CEM; format: cell-based
Protocol: (§1) The effects of the compounds on cell growth were determined in all human tumor cells (i.e. T-cell acute lymphocytic leukemia CCRF-CEM), in a 72 h incubation, by XTT-tetrazolium assay, as described by Scudiero et al., Cancer Res. 1988, 48, 4827-4833. After the addition of phenazine methosulfate-XTT solution at 37° C. for 6 h, absorbance at 450 and 630 nm was detected on a microplate reader (EL 340; Bio-Tek Instruments Inc., Winooski, Vt.). Six to seven concentrations of each compound were used. The IC50 and dose-effect relationships of the compounds for antitumor activity were calculated by a median-effect plot (see, e.g., Chou et al. Adv. Enzyme Regul. 1984, 22, 27-55) using a computer program on an IBM-PC workstation (see, e.g., Chou et al. Dose-Effect Analysis with Microcomputers: Quantitation of ED50, LD50, Synergism, Antagonism, Low-Dose Risk, Receptor-Ligands Binding and Enzyme Kinetics; Biosoft: Cambridge, U.K., 1987).

CCRF-CEM/VBL = assay: XTT cytotoxicity assay, vinblastine-resistant subline; format: cell-based, human; conditions: for IC50: Homo sapiens, CCRF-CEM, XTT, 72 hours incubation, read-out: IC50 CCRF-CEM/VBL; for folds of resistance CCRF-CEM/VBL vs CCRF-CEM parent cells: number in bracket, ratio of IC50's
Protocol: as §1
(§2) Data summarizing the growth inhibition of human lymphoblastic leukemic cells (CCRF-CEM) and its drug-resistant sublines (resistant to vinblastine and taxol, CCRF-CEM/VBL and CCRF-CEM/taxol, respectively) by compound 37 is shown in Table 4.

CCRF-CEM/Taxol = assay: XTT cytotoxicity assay, taxol-resistant subline; format: cell-based, human; conditions: for IC50: Homo sapiens, CCRF-CEM, XTT, 72 hours incubation, read-out: IC50 CCRF-CEM/Taxol; for folds of resistance CCRF-CEM/Taxol vs CCRF-CEM parent cells: number in bracket, ratio of IC50's
Protocol: as §1, §2

A549 = assay: SRB cytotoxicity assay, solid tumor cells A549; format: cell-based, human; conditions: for IC50: Homo sapiens, A549, SRB
Topo II = assay: Topo II-mediated relaxation of pRYG-DNA; format: biochemical
HCT-116 = assay: SRB cytotoxicity assay, solid tumor cells HCT-116; format: cell-based; conditions: Homo sapiens, HCT-116; SRB, 72 hours incubation; read-out: IC50 HCT-116
[2] = Table 1, Type 1 compounds, 72 h incubation, XTT
[3] = Table 2, Type 2 compounds, 72 h incubation, XTT
[4] = Homo sapiens, Table 4, XTT, 72 hours incubation, read-out: IC50 CCRF-CEM
[5] = 72 hours incubation, read-out: IC50 A549
[6] = incubation for 3 hours, washed, then incubated for a total of 72 hours (footnote b), read-out: IC50 A549 after washing

Q: Which IC50 [1, 2] does the source give for `Cc1cccc2c(Nc3cccc(OCCCCN(CCCl)CCCl)c3)c3cccc(C(=O)NCCN(C)C)c3nc12` [Compound 43, 9-(3-{4-[Bis(2-chloroethyl)amino]butoxy}phenylamino)-5-methylacridin-4-carboxylic acid (2-dimethylaminoethyl)amide] here?
A: Its IC50 is 23.5 nM.

Q: With `ClCCN(CCCl)Cc1ccc(Nc2c3ccccc3nc3ccccc23)cc1` [Compound 47, Acridin-9-yl-(4-{[bis(2-chloroethyl)amino]methyl}phenyl)amine] as the compound, how does the IC50 [1, 2] read?
A: Its IC50 is 30 nM.

Q: With `ClCCN(CCCl)Cc1cccc(Nc2c3ccccc3nc3ccccc23)c1` [Compound 46, Acridin-9-yl-(3-{[bis-(2-chloroethyl)amino]methyl}phenyl)amine] as the compound, how does the IC50 [1, 2] read?
A: The IC50 was 7.4 nM.

Q: With `Cc1cccc2c(Nc3ccc(OCCN(CCCl)CCCl)cc3)c3cccc(C(=O)NCCN(C)C)c3nc12` [Compound 44, 9-(4-{2-[Bis(2-chloroethyl)amino]ethoxy}phenylamino)-5-methylacridin-4-carboxylic acid (2-dimethylaminoethyl)amide] as the compound, how does the IC50 [1, 2] read?
A: Its IC50 is 773 nM.

Q: For `Cc1cccc2c(Nc3cccc(OCCN(CCCl)CCCl)c3)c3cccc(C(=O)NCCN(C)C)c3nc12` [Compound 42, 9-(3-{2-[Bis(2-chloroethyl)amino]ethoxy}phenylamino)-5-methylacridin-4-carboxylic acid (2-dimethylaminoethyl)amide], which IC50 [1, 2] is on record?
A: Its IC50 is 3 nM.

Q: Which IC50 [1, 3] does the source give for `Nc1cc(CO)cc(Nc2c3ccccc3nc3c(OCCCCN(CCCl)CCCl)cccc23)c1` [Compound 52, [3-Amino-5-(4-{4-[bis-(2-chloroethyl)amino]butoxy}acridin-9-ylamino)phenyl]-methanol] here?
A: The IC50 was 4.6 nM.

Q: With `ClCCN(CCCl)CCOc1ccc(Nc2c3ccccc3nc3c(OCCN(CCCl)CCCl)cccc23)cc1` [Compound 56, (4-[2-[Bis(2-chloroethyl)amino]ethoxy]acridin-9-yl)-(4-{2-[bis(2-chloroethyl)amino]-ethoxy}phenyl)amine] as the compound, how does the IC50 ([1]; Homo sapiens, 72 h) read?
A: Its IC50 is 17.3 nM.

Q: What does the source list for `Nc1cc(CO)cc(Nc2c3ccccc3nc3ccccc23)c1` [AHMA, 3-(9-acridinylamino)-5-hydroxymethylaniline]?
A: IC50 ([1]; Homo sapiens, Table 1, Type 1 compounds, 72 h incubation, XTT, read-out: IC50): 753 nM; IC50 [1, 4]: 753 ± 378 nM; IC50 (CCRF-CEM/VBL): 1600 nM; folds of resistance CCRF-CEM/VBL vs CCRF-CEM parent cells (CCRF-CEM/VBL): 2.1 ×; IC50 (CCRF-CEM/Taxol): 600 ± 74 nM; folds of resistance CCRF-CEM/Taxol vs CCRF-CEM parent cells (CCRF-CEM/Taxol): 0.8 ×; IC50 (A549; [5]): 47 nM; IC50 (A549; [6]): 550 nM; reduction of potency when drug washed away (A549; similar conditions, drug washed away): about 12 fold

Q: Which IC50 ([1]; Homo sapiens, 72 h) does the source give for `ClCCN(CCCl)CCCCOc1cccc(Nc2c3ccccc3nc3ccccc23)c1` [Compound 39, Acridin-9-yl-(3-{4-[bis(2-chloroethyl)amino]butoxy}phenyl)amine] here?
A: Its IC50 is 456 nM.

Q: For `Cc1cccc2c(Nc3ccc(CN(CCCl)CCCl)cc3)c3cccc(C(=O)NCCN(C)C)c3nc12` [Compound 49, 9-(4-{[Bis(2-chloroethyl)amino]methyl}phenylamino)-5-methylacridin-4-carboxylic acid (2-dimethylaminoethyl)amide], which IC50 [1, 2] is on record?
A: The IC50 was 8.1 nM.

Q: Which IC50 ([1]; Homo sapiens, 72 h) does the source give for `ClCCN(CCCl)CCOc1ccc(Nc2c3ccccc3nc3ccccc23)cc1` [Compound 40, Acridin-9-yl-(4-{2-[bis(2-chloroethyl)amino]ethoxy}phenyl)amine] here?
A: The IC50 was 20 nM.

Q: With `ClCCN(CCCl)CCCCOc1cccc(Nc2c3ccccc3nc3c(OCCN(CCCl)CCCl)cccc23)c1` [Compound 58] as the compound, how does the IC50 ([1]; Table 3, Type 3 compounds, 72 h incubation, XTT, read-out: IC50) read?
A: Its IC50 is 25 nM.

Q: With `ClCCN(CCCl)CCOc1cccc(Nc2c3ccccc3nc3ccccc23)c1` [Compound 38, Acridin-9-yl-(3-{2-[bis(2-chloroethyl)amino]ethoxy}phenyl)amine] as the compound, how does the IC50 ([1]; Homo sapiens, 72 h) read?
A: Its IC50 is 95 nM.

Q: With `Cc1cccc2c(Nc3ccc(OCCCCN(CCCl)CCCl)cc3)c3cccc(C(=O)NCCN(C)C)c3nc12` [Compound 45, 9-(4-{4-[Bis(2-chloroethyl)amino]butoxy}phenylamino)-5-methylacridin-4-carboxylic acid (2-dimethylaminoethyl)amide] as the compound, how does the IC50 [1, 2] read?
A: The IC50 was 23 nM.

Q: For `Nc1cc(CO)cc(Nc2c3ccccc3nc3c(OCCN(CCCl)CCCl)cccc23)c1` [Compound 50, [3-Amino-5-(4-{2-[bis(2-chloroethyl)amino]ethoxy}acridin-9-ylamino)phenyl]methanol], which IC50 [1, 3] is on record?
A: Its IC50 is 7.2 nM.

Q: For `CCOC(=O)Nc1cc(CO)cc(Nc2c3ccccc3nc3c(OCCN(CCCl)CCCl)cccc23)c1` [Compound 51], which IC50 [1, 3] is on record?
A: The IC50 was 26 nM.

Q: With AHMA-tert-butylcarbamate as the compound, how does the “Topo II-mediated relaxation of pRYG-DNA” value (Topo II) read?
A: Its value is “inhibited DNA relaxation”.

Q: For `Cc1cccc2c(Nc3cccc(CN(CCCl)CCCl)c3)c3cccc(C(=O)NCCN(C)C)c3nc12` [Compound 48, 9-(3-{[Bis(2-chloroethyl)amino]methyl}phenylamino)-5-methylacridine-4-carboxylic acid (2-dimethylaminoethyl)amide], which IC50 [1, 2] is on record?
A: The IC50 was 1.7 nM.

Q: For `COc1cc([C@@H]2c3cc4c(cc3[C@@H](O[C@@H]3O[C@@H]5CO[C@@H](C)O[C@H]5[C@H](O)[C@H]3O)[C@H]3COC(=O)[C@H]23)OCO4)cc(OC)c1O` [VP-16], which “Topo II-mediated relaxation of pRYG-DNA” value (Topo II) is on record?
A: Its value is “inhibited DNA relaxation”.

Q: For `Cc1cccc2c(Nc3ccc(OCCN(CCCl)CCCl)cc3)c3cccc(C(=O)NCCN(C)C)c3nc12` (as salt: salt) [Compound 44, 9-(4-{2-[Bis(2-chloroethyl)amino]ethoxy}phenylamino)-5-methylacridin-4-carboxylic acid (2-dimethylaminoethyl)amide], which melting point is on record?
A: The melting point was 185 to 186 °C.

Q: With `ClCCN(CCCl)CCOc1cccc(Nc2c3ccccc3nc3c(OCCN(CCCl)CCCl)cccc23)c1` [Compound 54, (4-{2-[Bis-(2-chloroethyl)amino]ethoxy}acridin-9-yl)-(3-{2-[bis(2-chloroethyl)-amino]ethoxy}phenyl)amine] as the compound, how does the IC50 ([1]; Homo sapiens, 72 h) read?
A: The IC50 was 18.6 nM.

Q: With `ClCCN(CCCl)CCCCOc1cccc(Nc2c3ccccc3nc3c(OCCN(CCCl)CCCl)cccc23)c1` [Compound 55] as the compound, how does the IC50 ([1]; Homo sapiens, 72 h) read?
A: Its IC50 is 6 nM.

Q: For `OCc1cc(O)cc(Nc2c3ccccc3nc3c(OCCN(CCCl)CCCl)cccc23)c1` [Compound 53, 3-(4-{2-[Bis-(2-chloroethyl)amino]ethoxy}acridin-9-ylamino)-5-hydroxymethylphenol], which IC50 [1, 3] is on record?
A: The IC50 was 6.1 nM.

Q: Which IC50 [1, 4] does the source give for `CC[C@]1(O)C[C@@H]2CN(CCc3c([nH]c4ccccc34)[C@@](C(=O)OC)(c3cc4c(cc3OC)N(C)[C@H]3[C@@](O)(C(=O)OC)[C@H](OC(C)=O)[C@]5(CC)C=CCN6CC[C@]43[C@@H]65)C2)C1` [Vinblastine] here?
A: Its IC50 is 1.2 nM.

Q: What about the IC50 (CCRF-CEM/VBL) of the same compound?
A: Its IC50 is 540 nM.

Q: What about the “folds of resistance CCRF-CEM/VBL vs CCRF-CEM parent cells” value (CCRF-CEM/VBL) of the same compound?
A: Its value is 450 ×.

Q: What about the IC50 (CCRF-CEM/Taxol) of the same compound?
A: The IC50 was 29 nM.

Q: And the “folds of resistance CCRF-CEM/Taxol vs CCRF-CEM parent cells” value (CCRF-CEM/Taxol)?
A: The value was 24.2 ×.

Q: And the IC50 (A549; [5])?
A: Its IC50 is 8.1 nM.

Q: What about the IC50 (A549; [6]) of the same compound?
A: The IC50 was 95 nM.

Q: What about the IC50 (HCT-116) of the same compound?
A: Its IC50 is 1.4 nM.

Q: Which IC50 ([1]; Homo sapiens, 72 h) does the source give for `ClCCN(CCCl)CCCCOc1ccc(Nc2c3ccccc3nc3ccccc23)cc1` [Compound 41, Acridin-9-yl-(4-{4-[bis(2-chloroethyl)amino]buoxy}phenyl)amine] here?
A: Its IC50 is 61 nM.

Q: What does the source list for `CC(=O)O[C@H]1C(=O)[C@@]2(C)[C@H]([C@H](OC(=O)c3ccccc3)[C@]3(O)C[C@H](OC(=O)[C@H](O)[C@@H](NC(=O)c4ccccc4)c4ccccc4)C(C)=C1C3(C)C)[C@]1(OC(C)=O)CO[C@@H]1C[C@@H]2O` [Taxol]?
A: IC50 [1, 4]: 1.5 ± 0.5 nM; IC50 (CCRF-CEM/VBL): 1620 nM; folds of resistance CCRF-CEM/VBL vs CCRF-CEM parent cells (CCRF-CEM/VBL): 1080 ×; IC50 (CCRF-CEM/Taxol): 143 ± 7 nM; folds of resistance CCRF-CEM/Taxol vs CCRF-CEM parent cells (CCRF-CEM/Taxol): 95.3 ×; IC50 (A549; [5]): 1.9 nM; IC50 (A549; [6]): 390 nM; IC50 (HCT-116): 1.3 nM
